Data on seven compounds can be found in patent US8030282B2, “Motilide polymorphs” (priority 2006, dated 2011).

Values after ≈ are worked out from the molar mass of the structure shown.

A short description of data set [1]: Gravimetric vapor sorption (GVS) moisture sorption isotherm. Format: physicochemical. The following applies: for mass gain/loss upon multiple sorption and desorption cycles / weight increase / mass uptake between 0 and 90% RH: GVS, 25° C.; for XRPD re-analysis under ambient conditions after GVS: after GVS weight uptake/loss; for weight increase / mass uptake between 0 and 90% RH: 0 to 90% RH. The procedure:
GVS data was also collected by Pharmorphix, Ltd. All samples were run on a Hiden IGASorp moisture sorption analyzer running CFRSorp software. Sample sizes were typically 10 mg. A moisture adsorption-desorption isotherm was performed as outlined below, with two scans giving one complete cycle. All samples were loaded and unloaded at typical ambient (room) humidity and temperature (40% RH, 25° C.). All samples were analyzed by XRPD after GVS analysis. The standard isotherm was performed at 25° C. at 10% RH intervals over a 0 to 90% RH range. [table]

Data set [2] in a line: Retention of crystallinity on heating or vacuum drying (XRPD). The data set is classed as physicochemical. The text has this: XRPD patterns were collected on a Bruker AXS C2 GADDS diffractometer using Cu Kα radiation (40 kV, 40 mA), automated XYZ stage, laser video microscope for auto-sample positioning and a HiStar 2-dimensional area detector. X-ray optics consisted of a single Göbel multilayer mirror coupled with a pinhole collimator of 0.3 mm.
The beam divergence, i.e. the effective size of the X-ray beam on the sample, was approximately 4 mm. A θ-θ continuous scan mode was employed with a sample-detector distance of 20 cm which gave an effective 2θ range of 3.2° to 29.7°. Typically the sample would be exposed to the X-ray beam for 120 seconds.

Data set [3] is described as follows: Aqueous solubility of polymorphs of Compound Ia. The data set is classed as physicochemical.
A short description of data set [4]: Form stability under aqueous conditions / during solubility analysis. The data set is classed as physicochemical.
Data set [5] can be described thus: Storage stability at 40° C. and 75% RH (XRPD). The following applies: for change on storage at 40° C. and 75% RH: one week. The data set is classed as physicochemical.
For the next data set, the target named is motilin receptor (Homo sapiens, UniProt O43193). As to conditions: cited from earlier work.
Sequence of motilin receptor (O43193 whole entry, species assumed): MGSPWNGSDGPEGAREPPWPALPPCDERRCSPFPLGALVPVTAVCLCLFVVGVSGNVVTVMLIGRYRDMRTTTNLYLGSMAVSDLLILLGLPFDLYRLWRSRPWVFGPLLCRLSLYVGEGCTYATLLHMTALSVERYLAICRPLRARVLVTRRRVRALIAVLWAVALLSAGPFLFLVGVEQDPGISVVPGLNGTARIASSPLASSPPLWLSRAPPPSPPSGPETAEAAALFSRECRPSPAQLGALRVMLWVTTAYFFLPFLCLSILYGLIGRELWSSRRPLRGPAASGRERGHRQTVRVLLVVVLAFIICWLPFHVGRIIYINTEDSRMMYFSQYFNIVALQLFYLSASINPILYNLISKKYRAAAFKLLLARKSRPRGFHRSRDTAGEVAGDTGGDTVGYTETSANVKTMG

For the compound `CC[C@H]1OC(=O)[C@H](C)[C@@H](O[C@H]2C[C@@](C)(OC)[C@@H](O)[C@H](C)O2)[C@H](C)[C@@H](O[C@@H]2O[C@H](C)C[C@H](N(C)C(C)C)[C@H]2O)[C@](C)(O)C[C@@H](C)[C@H](OCC(=O)NC)[C@H](C)[C@@H](O)[C@]1(C)O` [Polymorph II], in data set [1], the “mass gain/loss upon multiple sorption and desorption cycles” value was “changed drastically”; the “XRPD re-analysis under ambient conditions after GVS” value (“XRPD re-analysis” for short) is on record as “loss of crystallinity”. Further, in data set [1] (between 5 and 0% RH), the “weight loss when kept at between 5 and 0% RH” value is on record as 4%. For the same compound, the “crystallinity during vacuum drying” value in data set [2] (vacuum drying at 30° C. for 72 h) is listed as “loses crystallinity”.
Usually solubility stands for how much of the substance goes into solution per volume. Take `CC[C@H]1OC(=O)[C@H](C)[C@@H](O[C@H]2C[C@@](C)(OC)[C@@H](O)[C@H](C)O2)[C@H](C)[C@@H](O[C@@H]2O[C@H](C)C[C@H](N(C)C(C)C)[C@H]2O)[C@](C)(O)C[C@@H](C)[C@H](OCC(=O)NC)[C@H](C)[C@@H](O)[C@]1(C)O` [Polymorph IV]: in data set [3] (water), the solubility is 770 µg/mL (≈ 922 µM). The “polymorph change under aqueous conditions / during solubility analysis” value in data set [4] is “Neither storage at 40 °C at 75% R^H for 10 weeks nor handling during solubility analysis produced any significant changes”. Besides, in data set [5] (10 weeks), the “change on storage at 40° C. at 75% RH” value was “Neither storage at 40 °C at 75% R^H for 10 weeks nor handling during solubility analysis produced any significant changes”. Besides, in data set [1], the “weight increase / mass uptake between 0 and 90% RH” value was determined as 3.5%; the “mass gain/loss upon multiple sorption and desorption cycles” value is “very uniform”; the “XRPD re-analysis” value is recorded as “did not lead to a change in XRPD pattern”. The “XRPD pattern on heating” value in data set [2] (heating up to the melt) is listed as “no change in XRPD pattern”.
Take `CC[C@H]1OC(=O)[C@H](C)[C@@H](O[C@H]2C[C@@](C)(OC)[C@@H](O)[C@H](C)O2)[C@H](C)[C@@H](O[C@@H]2O[C@H](C)C[C@H](N(C)C(C)C)[C@H]2O)[C@](C)(O)C[C@@H](C)[C@H](OCC(=O)NC)[C@H](C)[C@@H](O)[C@]1(C)O` [Polymorph I]: the “polymorph change under aqueous conditions / during solubility analysis” value in data set [4] was “converted to a second polymorph, referred to as Polymorph II”. For the same compound, in data set [1], the “weight increase / mass uptake between 0 and 90% RH” value is reported as 8.5%; the “mass gain/loss upon multiple sorption and desorption cycles” value is on record as “changed drastically”.
In general, aqueous solubility refers to how much of the substance goes into solution per volume. A higher aqueous solubility goes with much dissolved substance. Consider `CC[C@H]1OC(=O)[C@H](C)[C@@H](O[C@H]2C[C@@](C)(OC)[C@@H](O)[C@H](C)O2)[C@H](C)[C@@H](O[C@@H]2O[C@H](C)C[C@H](N(C)C(C)C)[C@H]2O)[C@](C)(O)C[C@@H](C)[C@H](OCC(=O)NC)[C@H](C)[C@@H](O)[C@]1(C)O` [Polymorph VII], for which the aqueous solubility in data set [3] came to 750 µg/mL (≈ 898 µM). Moreover, the “polymorph change under aqueous conditions / during solubility analysis” value in data set [4] is “converted to a mixture of Polymorphs II and IV”. In addition, the “change on storage at 40° C. and 75% RH” value in data set [5] is recorded as “lost crystallinity”. In addition, in data set [1], the “weight change by GVS analysis” value is listed as “constant weight loss”; the “weight increase / mass uptake between 0 and 90% RH” value came to 3%; the “mass gain/loss upon multiple sorption and desorption cycles” value is “changed drastically”; the “XRPD re-analysis” value was “loss of crystallinity”.
For the compound `CC[C@H]1OC(=O)[C@H](C)[C@@H](O[C@H]2C[C@@](C)(OC)[C@@H](O)[C@H](C)O2)[C@H](C)[C@@H](O[C@@H]2O[C@H](C)C[C@H](N(C)C(C)C)[C@H]2O)[C@](C)(O)C[C@@H](C)[C@H](OCC(=O)NC)[C@H](C)[C@@H](O)[C@]1(C)O` [Polymorph VI], in data set [5] (duration not stated), the “change on storage at 40° C. at 75% RH” value is listed as “converted to Polymorph IV”. Further, the “mass gain/loss upon multiple sorption and desorption cycles” value in data set [1] was “changed drastically”.
On to `CC[C@H]1OC(=O)[C@H](C)[C@@H](O[C@H]2C[C@@](C)(OC)[C@@H](O)[C@H](C)O2)[C@H](C)[C@@H](O[C@@H]2O[C@H](C)C[C@H](N(C)C(C)C)[C@H]2O)[C@](C)(O)C[C@@H](C)[C@H](OCC(=O)NC)[C@H](C)[C@@H](O)[C@]1(C)O` [Polymorph V], for which the aqueous solubility in data set [3] was 720 µg/mL (≈ 862 µM). In addition, the “polymorph change under aqueous conditions / during solubility analysis” value in data set [4] was “converted to Polymorph II”. Further, the “change on storage at 40° C. and 75% RH” value in data set [5] is given as “decreased in crystallinity”.
For the compound `CC[C@H]1OC(=O)[C@H](C)[C@@H](O[C@H]2C[C@@](C)(OC)[C@@H](O)[C@H](C)O2)[C@H](C)[C@@H](O[C@@H]2O[C@H](C)C[C@H](N(C)C)[C@H]2O)[C@](C)(O)C[C@@H](C)C(=O)[C@H](C)[C@@H](O)[C@]1(C)O` [erythromycin A (1), Erythromycin A], at motilin receptor, the motilin agonist activity result is reported as “motilin agonist activity”.
